Reference: US20120239131A1, “METHODS AND APPARATUS FOR TREATMENT OF ANEURYSMAL TISSUE” (Medtronic Vascular, Inc., priority 2011, published 2012)

Columns and labels:
Type in all cases: in vivo, ApoE−/− mice
[1] = system: genes involved in the pathophysiology of AAA; assay: Drug inhibition effect on differentially expressed genes, overall; settings: for Down-regulation of genes involved in the pathophysiology of AAA: ApoE−/− + Ang II AAA model, summary of Table 2; for Total Score: sum of heat map grades over 25 genes, ApoE−/− + Ang II group scored 55
Experimental: (§1) ApoE−/− mice used in this study were divided into different pretreatment groups: 1) Fluvastatin-MF; 2) Doxycycline-MD; 3) Irbesartan-MI; 4) Telmisartan-MT; 5) Control (water) and fed medicated chow or medicated drinking water 1 week prior to pump implantation. AngII (1000 ng·kg^−1 of body weight·min^−1) was infused subcutaneously via Alzet mini-osmotic pumps for 28 days. All mice were maintained on the medicated chow (MI & MT) or medicated drinking water (MF & MD) treatments which were delivered daily for a total of 28 days following pump implantation.
(§2) In order to determine the effect of the various treatments on the progressive enlargement of the experimental AAAs the mice were followed with high frequency trans-abdominal ultrasound. Maximum aortic diameter was measured and recorded prior to pump implantation and then at 3, 7, 14, 21, and 28 days. All mice were sacrificed 28 days after pump implantation. Aortae were harvested and subjected to either histological analysis (Elastic Masson trichome, MAC2, CD31 and TUNEL staining) and analysis of mural gene expression. Plasma drug concentrations of experimental compounds were quantified on the day of sacrifice using high performance liquid chromatography (HPLC).
Total RNA was extracted from homogenized aortas using the Qiazol lysis reagent and RNeasy Lipid Tissue Mini kit. DNAse treatment was included in the procedure. RNA concentration was determined utilizing the Quant iT RNA assay kit. Complimentary deoxyribonucleic acid (cDNA) was synthesized from 1 μg RNA using High reverse cDNA transcription kit. Briefly the reaction tubes containing RNA, reverse transcriptase, buffer, RNAse inhibitor, and nuclease free water were incubated at 25° C. for 10 minutes to allow annealing. Reverse transcription was performed at 37° C. for 120 min, followed by a 5 sec incubation at 85° C. to inactivate the reverse transcriptase enzyme. The cDNA samples were cooled at 4° C. and stored at −80° C. until further use.
Real time PCR was performed using a 384-well Taqman low density array (TLDA) card. Each sample specific PCR mix contained 50 ng of total RNA converted to cDNA. The PCR reaction for Taqman assays contained 50 μl Master Mix (Taqman Universal PCR Master Mix,) and 50 ul of cDNA and RNAase free water. Assays were performed to include appropriate controls (no template control). The RT-PCR protocol included an initial step of 50° C. (2 minutes) […], denaturation by a hot start at 95° C. for 10 min, followed by 40 cycles of a 2 step program (denaturation at 95° C. for 15 secs for primer annealing/extension at 60° C. for 1 min). Fluorescence data was collected at 60° C. Fluorescence was quantified with ABI PRISM 7900HT Sequence Detection System. To verify amplification of a specific target cDNA, data generated was analyzed using SDS 2.2.3 software (Sequence Detection System Software, Applied Biosystems). For all amplification plots, the baseline data were set with the automatic CT function available with SDS 2.2.3 calculating the optimal baseline range and threshold value by using the AutoCT algorithm. According to the manufacturer's instruction, a CT value of ≧39 corresponds to nonspecific amplification marking the limits of detection. For endogenous control GAPDH was normalized to B2M. For relative quantification (RQ), pooled ApoE−/− control was used as the calibrator (with expression equal to 1).

NFKb1 = assay: Aortic mural gene expression, RT-PCR (TLDA); settings: fold change over ApoE−/− control; aorta, 28 days Ang II infusion
Experimental: (§3) Total RNA was extracted from homogenized aortas using the Qiazol lysis reagent and RNeasy Lipid Tissue Mini kit. DNAse treatment was included in the procedure. RNA concentration was determined utilizing the Quant iT RNA assay kit. Complimentary deoxyribonucleic acid (cDNA) was synthesized from 1 μg RNA using High reverse cDNA transcription kit. Briefly the reaction tubes containing RNA, reverse transcriptase, buffer, RNAse inhibitor, and nuclease free water were incubated at 25° C. for 10 minutes to allow annealing. […] The cDNA samples were cooled at 4° C. and stored at −80° C. until further use.
(§4) Real time PCR was performed using a 384-well Taqman low density array (TLDA) card. Each sample specific PCR mix contained 50 ng of total RNA converted to cDNA. The PCR reaction for Taqman assays contained 50 μl Master Mix (Taqman Universal PCR Master Mix,) and 50 ul of cDNA and RNAase free water. Assays were performed to include appropriate controls (no template control). The RT-PCR protocol included an initial step of 50° C. […] Fluorescence data was collected at 60° C. Fluorescence was quantified with ABI PRISM 7900HT Sequence Detection System. To verify amplification of a specific target cDNA, data generated was analyzed using SDS 2.2.3 software (Sequence Detection System Software, Applied Biosystems). […] For relative quantification (RQ), pooled ApoE−/− control was used as the calibrator (with expression equal to 1).

CSF1 = assay: Aortic mural gene expression, RT-PCR (TLDA); settings: fold change over ApoE−/− control; aorta, 28 days Ang II infusion
Experimental: as §3, §4

AAA = assay: Aortic diameter by ultrasonography, ApoE−/−+Ang II AAA model; settings: pretreatment 1 week before Ang II infusion, followed to 28 days, versus control and doxycycline
From the text: The ApoE^−/−+Ang II AAA model is well established and supported by current scientific literature. Mice genetically predisposed to hypercholesterolemia develop aneurysms when treated with angiotensin II. Aneurysms generally develop within the first week after pump implantation and share many important pathologic characteristics with human AAA disease. ApoE−/− mice used in this study were divided into different pretreatment groups: 1) Fluvastatin-MF; 2) Doxycycline-MD; 3) Irbesartan-MI; 4) Telmisartan-MT; 5) Control (water) and fed medicated chow or medicated drinking water 1 week prior to pump implantation. AngII (1000 ng·kg^−1 of body weight·min^−1) was infused subcutaneously via Alzet mini-osmotic pumps for 28 days. All mice were maintained on the medicated chow (MI & MT) or medicated drinking water (MF & MD) treatments which were delivered daily for a total of 28 days following pump implantation. In order to determine the effect of the various treatments on the progressive enlargement of the experimental AAAs the mice were followed with high frequency trans-abdominal ultrasound. Maximum aortic diameter was measured and recorded prior to pump implantation and then at 3, 7, 14, 21, and 28 days. All mice were sacrificed 28 days after pump implantation. Aortae were harvested and subjected to either histological analysis (Elastic Masson trichome, MAC2, CD31 and TUNEL staining) and analysis of mural gene expression. Plasma drug concentrations of experimental compounds were quantified on the day of sacrifice using high performance liquid chromatography (HPLC).

aneurysm = assay: Aneurysm incidence over time, ApoE−/−+Ang II AAA model; settings: aneurysm = dissection or more than 50% increase in diameter, versus doxycycline and saline control
Experimental: as §1, §2
Aneurysm was defined as either the presence of dissection or more than 50% increase in diameter.

ITGAL = assay: Aortic mural gene expression, RT-PCR (TLDA); settings: fold change over ApoE−/− control; aorta, 28 days Ang II infusion
Summary of the method: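 ApoE−/− mice pretreated 1 week with fluvastatin or doxycycline (drinking water), irbesartan or telmisartan (chow) or water, then infused s.c. with AngII 1000 ng·kg^−1·min^−1 for 28 days on continued treatment. Aortic RNA from harvested aortae reverse-transcribed; TaqMan TLDA qPCR, 40 cycles; relative quantification against pooled ApoE−/− control calibrator.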

| SMILES | Down-regulation of genes involved in the pathophysiology of AAA [1] | Total Score [1] | NFKb1 expression (NFKb1) | CSF1 expression (CSF1) | Inhibition of aneurysm development/growth (aortic diameter) (AAA) | Inhibition of aneurysm development/growth (aortic diameter) (AAA; listed as telmisartan) | Inhibition of aneurysm development (aneurysm incidence) (aneurysm) | Inhibition of aneurysm development (aneurysm incidence) (aneurysm; listed as telmisartan) | ITGAL expression (ITGAL) |
| --- | --- | --- | --- | --- | --- | --- | --- | --- | --- |
| CCCc1nc2c(C)cc(-c3nc4ccccc4n3C)cc2n1Cc1ccc(-c2ccccc2C(=O)O)cc1 [Telmisartan] | down-regulating the expression of genes | 6 | − (0 to 1 = −) | − (0 to 1 = −) | effective in inhibiting aneurysm development | effective in inhibiting/preventing aneurysm development | inhibited aneurysm development well | effective in inhibiting aneurysm development |  |
| CC(C)n1c(/C=C/C(O)CC(O)CC(=O)O)c(-c2ccc(F)cc2)c2ccccc21 (stereo not drawn) [Fluvastatin] | down-regulating the expression of genes | 45 | − (0 to 1 = −) | − (0 to 1 = −) | relative good inhibition of AAA |  | effective in inhibiting aneurysm development |  | ++ (1.51 to 3 = ++) |
